Source: article PMC9520563 (ACS Omega, 2022)

Columns and labels:
MDA-MB-231 [1] = assay: cells; settings: Homo sapiens, MDA-MB-231, 72 h, read-out: IC50 MDA-MB-231
HepG2 [2] = assay: cells; settings: Homo sapiens, HepG2, 72 h, read-out: IC50 HepG2
MDA-MB-231 [3] = settings: IC50 on LLC-PK1 divided by IC50 on MDA-MB-231
HepG2 [4] = settings: IC50 on LLC-PK1 divided by IC50 on HepG2
porcine brain tubulin = porcine brain tubulin (Sus scrofa, UniProt P02550+P02554); assay: biochemical; settings: read-out: % inhibition of tubulin polymerization
Sequence of porcine brain tubulin (P02550 whole entry): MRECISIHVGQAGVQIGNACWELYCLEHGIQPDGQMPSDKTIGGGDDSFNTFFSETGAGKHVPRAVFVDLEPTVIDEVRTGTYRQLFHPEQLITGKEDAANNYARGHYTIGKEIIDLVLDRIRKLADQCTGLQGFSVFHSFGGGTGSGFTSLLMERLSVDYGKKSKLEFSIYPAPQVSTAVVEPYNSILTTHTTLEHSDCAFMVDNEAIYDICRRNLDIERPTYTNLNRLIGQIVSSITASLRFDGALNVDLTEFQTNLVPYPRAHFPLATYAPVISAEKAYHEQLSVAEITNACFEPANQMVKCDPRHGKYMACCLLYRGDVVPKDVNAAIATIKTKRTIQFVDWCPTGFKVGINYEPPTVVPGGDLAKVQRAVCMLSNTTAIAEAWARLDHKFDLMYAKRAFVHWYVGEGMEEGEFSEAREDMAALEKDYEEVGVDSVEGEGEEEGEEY
Sequence of porcine brain tubulin (P02554 whole entry): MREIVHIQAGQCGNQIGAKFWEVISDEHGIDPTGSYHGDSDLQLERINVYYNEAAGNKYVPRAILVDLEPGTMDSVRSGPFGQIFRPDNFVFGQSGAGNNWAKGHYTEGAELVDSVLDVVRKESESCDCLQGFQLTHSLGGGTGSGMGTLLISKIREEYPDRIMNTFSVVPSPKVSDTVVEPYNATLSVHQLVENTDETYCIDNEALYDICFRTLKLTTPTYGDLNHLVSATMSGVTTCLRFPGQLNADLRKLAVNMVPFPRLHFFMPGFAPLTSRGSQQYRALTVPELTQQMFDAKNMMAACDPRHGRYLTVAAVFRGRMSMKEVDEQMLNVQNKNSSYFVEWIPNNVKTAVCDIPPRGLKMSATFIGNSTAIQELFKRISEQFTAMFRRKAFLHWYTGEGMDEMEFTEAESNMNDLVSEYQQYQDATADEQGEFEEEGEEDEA

| Compound | IC50 (MDA-MB-231 [1]) | IC50 (HepG2 [2]) | SI MDA-MB-231 (MDA-MB-231 [3]) | SI HepG2 (HepG2 [4]) | inhibition at 20 µM (porcine brain tubulin) |
| --- | --- | --- | --- | --- | --- |
| COc1ccc(/C=C/C(=O)/C=C/c2c(C)nn(-c3ccccc3)c2Cl)cc1OC [Compound 7a, (1E,4E)-1-(5-Chloro-3-methyl-1-phenyl-1H-pyrazol-4-yl)-5-(3,4-dimethoxyphenyl)penta-1,4-dien-3-one] | 6.6 ± 0.16 µM | 11.6 ± 1.2 µM | – | – | – |
| COc1ccc(/C=C/C(=O)/C=C/c2c(C)nn(-c3ccccc3)c2Cl)c(OC)c1 [Compound 7b, (1E,4E)-1-(5-Chloro-3-methyl-1-phenyl-1H-pyrazol-4-yl)-5-(2,4-dimethoxyphenyl)penta-1,4-dien-3-one] | 13.3 ± 0.39 µM | > 25 µM | – | – | – |
| COc1cc(/C=C/C(=O)/C=C/c2c(C)nn(-c3ccccc3)c2Cl)ccc1O [Compound 7c, (1E,4E)-1-(5-Chloro-3-methyl-1-phenyl-1H-pyrazol-4-yl)-5-(4-hydroxy-3-methoxyphenyl)penta-1,4-dien-3-one] | 7.71 ± 0.32 µM | 8 ± 0.87 µM | 1.24 | 1.19 | – |
| COc1ccc(/C=C/C(=O)/C=C/c2c(C)nn(-c3ccccc3)c2Cl)cc1O [Compound 7d, (1E,4E)-1-(5-Chloro-3-methyl-1-phenyl-1H-pyrazol-4-yl)-5-(3-hydroxy-4-methoxyphenyl)penta-1,4-dien-3-one] | 5.61 ± 0.24 µM | 14.2 ± 0.77 µM | – | 1.14 | 52 ± 0.65% |
| CCOc1cc(/C=C/C(=O)/C=C/c2c(C)nn(-c3ccccc3)c2Cl)ccc1O [Compound 7e, (1E,4E)-1-(5-Chloro-3-methyl-1-phenyl-1H-pyrazol-4-yl)-5-(4-hydroxy-3-ethoxyphenyl)penta-1,4-dien-3-one] | 13.5 ± 1.43 µM | 13.2 ± 1.41 µM | – | – | – |
| Cc1nn(-c2ccccc2)c(Cl)c1/C=C/C(=O)/C=C/c1ccc2c(c1)OCO2 [Compound 7f, (1E,4E)-1-(Benzo[d][1,3]dioxol-5-yl)-5-(5-chloro-3-methyl-1-phenyl-1H-pyrazol-4-yl)penta-1,4-dien-3-one] | 16.67 ± 0.07 µM | > 25 µM | – | – | – |
| COc1cc(/C=C/C(=O)/C=C/c2c(C)nn(-c3ccccc3)c2Cl)cc(OC)c1OC [Compound 7g, (1E,4E)-1-(5-Chloro-3-methyl-1-phenyl-1H-pyrazol-4-yl)-5-(3,4,5-trimethoxyphenyl)penta-1,4-dien-3-one] | 7.84 ± 0.07 µM | 13.03 ± 0.12 µM | – | – | – |
| COc1cc(/C=C/C(=O)/C=C/c2c(C)nn(-c3ccccc3)c2Cl)cc(OC)c1O [Compound 7h, (1E,4E)-1-(5-Chloro-3-methyl-1-phenyl-1H-pyrazol-4-yl)-5-(4-hydroxy-3,5-dimethoxyphenyl)penta-1,4-dien-3-one] | 3.64 ± 0.02 µM | 6.03 ± 0.06 µM | – | 2.14 | 45.3 ± 0.81% |
| COc1ccc(/C=C/C(=O)/C=C/c2c(C)nn(-c3cccc([N+](=O)[O-])c3)c2Cl)cc1OC [Compound 8a, (1E,4E)-1-[5-Chloro-3-methyl-1-(3-nitrophenyl)-1H-pyrazol-4-yl]-5-(3,4-dimethoxyphenyl)penta-1,4-dien-3-one] | 6.89 ± 0.31 µM | 7.19 ± 0.37 µM | 3.05 | 2.93 | 25.9 ± 0.33% |
| COc1ccc(/C=C/C(=O)/C=C/c2c(C)nn(-c3cccc([N+](=O)[O-])c3)c2Cl)c(OC)c1 [Compound 8b, (1E,4E)-1-[5-Chloro-3-methyl-1-(3-nitrophenyl)-1H-pyrazol-4-yl]-5-(2,4-dimethoxyphenyl)penta-1,4-dien-3-one] | 12.3 ± 1.29 µM | 18.3 ± 3.14 µM | – | – | – |
| COc1cc(/C=C/C(=O)/C=C/c2c(C)nn(-c3cccc([N+](=O)[O-])c3)c2Cl)ccc1O [Compound 8c, (1E,4E)-1-[5-Chloro-3-methyl-1-(3-nitrophenyl)-1H-pyrazol-4-yl]-5-(4-hydroxy-3-methoxyphenyl)penta-1,4-dien-3-one] | 7 ± 0.02 µM | 16.6 ± 0.45 µM | – | – | – |
| COc1ccc(/C=C/C(=O)/C=C/c2c(C)nn(-c3cccc([N+](=O)[O-])c3)c2Cl)cc1O [Compound 8d, (1E,4E)-1-[5-Chloro-3-methyl-1-(3-nitrophenyl)-1H-pyrazol-4-yl]-5-(3-hydroxy-4-methoxyphenyl)penta-1,4-dien-3-one] | 7.25 ± 0.08 µM | 25.3 ± 0.3 µM | – | – | – |
| CCOc1cc(/C=C/C(=O)/C=C/c2c(C)nn(-c3cccc([N+](=O)[O-])c3)c2Cl)ccc1O [Compound 8e, (1E,4E)-1-[5-Chloro-3-methyl-1-(3-nitrophenyl)-1H-pyrazol-4-yl]-5-(4-hydroxy-3-ethoxyphenyl)penta-1,4-dien-3-one] | 15.1 ± 0.2 µM | 11.18 ± 0.04 µM | – | – | – |
| Cc1nn(-c2cccc([N+](=O)[O-])c2)c(Cl)c1/C=C/C(=O)/C=C/c1ccc2c(c1)OCO2 [Compound 8f, (1E,4E)-1-(Benzo[d][1,3]dioxol-5-yl)-5-(5-chloro-3-methyl-1-(3-nitrophenyl)-1H-pyrazol-4-yl)penta-1,4-dien-3-one] | > 25 µM | > 25 µM | – | – | – |
| COc1cc(/C=C/C(=O)/C=C/c2c(C)nn(-c3cccc([N+](=O)[O-])c3)c2Cl)cc(OC)c1OC [Compound 8g, (1E,4E)-1-(5-Chloro-3-methyl-1-(3-nitrophenyl)-1H-pyrazol-4-yl)-5-(3,4,5-trimethoxyphenyl)penta-1,4-dien-3-one] | 2.43 ± 0.04 µM | 14.65 ± 0.1 µM | 2.44 | 0.40 | – |
| COc1cc(/C=C/C(=O)/C=C/c2c(C)nn(-c3cccc([N+](=O)[O-])c3)c2Cl)cc(OC)c1O [Compound 8h, (1E,4E)-1-(5-Chloro-3-methyl-1-(3-nitrophenyl)-1H-pyrazol-4-yl)-5-(4-hydroxy-3,5-dimethoxyphenyl)penta-1,4-dien-3-one] | 2.56 ± 0.01 µM | 6.69 ± 0.04 µM | 6.01 | 2.30 | 22.1 ± 0.84% |
| COc1ccc(/C=C/C(=O)/C=C/c2cn(-c3ccccc3)nc2-c2ccccc2)cc1OC [Compound 10a, (1E,4E)-1-(3,4-Dimethoxyphenyl)-5-(1,3-diphenyl-1H-pyrazol-4-yl)penta-1,4-dien-3-one] | 23.3 ± 2.37 µM | > 25 µM | – | – | – |
| COc1ccc(/C=C/C(=O)/C=C/c2cn(-c3ccccc3)nc2-c2ccccc2)c(OC)c1 [Compound 10b, (1E,4E)-1-(2,4-Dimethoxyphenyl)-5-(1,3-diphenyl-1H-pyrazol-4-yl)penta-1,4-dien-3-one] | > 25 µM | > 25 µM | – | – | – |
| COc1cc(/C=C/C(=O)/C=C/c2cn(-c3ccccc3)nc2-c2ccccc2)ccc1O [Compound 10c, (1E,4E)-1-(1,3-Diphenyl-1H-pyrazol-4-yl)-5-(4-hydroxy-3-methoxyphenyl)penta-1,4-dien-3-one] | 5.5 ± 0.22 µM | 10.6 ± 1.38 µM | – | 1.49 | 40.76 ± 0.33% |
| COc1ccc(/C=C/C(=O)/C=C/c2cn(-c3ccccc3)nc2-c2ccccc2)cc1O [Compound 10d, (1E,4E)-1-(1,3-Diphenyl-1H-pyrazol-4-yl)-5-(3-hydroxy-4-methoxyphenyl)penta-1,4-dien-3-one] | 3.29 ± 0.18 µM | 6.74 ± 0.26 µM | 2.55 | 1.25 | 35.5 ± 0.51% |
| CCOc1cc(/C=C/C(=O)/C=C/c2cn(-c3ccccc3)nc2-c2ccccc2)ccc1O [Compound 10e, (1E,4E)-1-(1,3-Diphenyl-1H-pyrazol-4-yl)-5-(4-hydroxy-3-ethoxyphenyl)penta-1,4-dien-3-one] | 6.14 ± 0.33 µM | 13.5 ± 1.53 µM | – | – | – |
| O=C(/C=C/c1ccc2c(c1)OCO2)/C=C/c1cn(-c2ccccc2)nc1-c1ccccc1 [Compound 10f, (1E,4E)-1-(Benzo[d][1,3]dioxol-5-yl)-5-(1,3-diphenyl-1H-pyrazol-4-yl)penta-1,4-dien-3-one] | 22 ± 3.24 µM | > 25 µM | – | – | – |
| COc1cc(/C=C/C(=O)/C=C/c2cn(-c3ccccc3)nc2-c2ccccc2)cc(OC)c1OC [Compound 10g, (1E,4E)-1-(1,3-Diphenyl-1H-pyrazol-4-yl)-5-(3,4,5-trimethoxyphenyl)penta-1,4-dien-3-one] | 14.3 ± 0.37 µM | > 25 µM | – | – | – |
| COc1cc(/C=C/C(=O)/C=C/c2cn(-c3ccccc3)nc2-c2ccccc2)cc(OC)c1O [Compound 10h, (1E,4E)-1-(1,3-Diphenyl-1H-pyrazol-4-yl)-5-(4-hydroxy-3,5-dimethoxyphenyl)penta-1,4-dien-3-one] | 4.06 ± 0.02 µM | 4.98 ± 0.09 µM | 2.51 | 2.05 | 25.73 ± 0.15% |
| COc1cc(/C=C/C(=O)CC(=O)/C=C/c2ccc(O)c(OC)c2)ccc1O [curcumin, reference compound] | 20.7 ± 0.8 µM | 23.4 ± 7.27 µM | 1.72 | 1.51 | – |
| CC(=O)O[C@H]1C(=O)[C@@]2(C)[C@H]([C@H](OC(=O)c3ccccc3)[C@]3(O)C[C@H](OC(=O)[C@H](O)[C@@H](NC(=O)c4ccccc4)c4ccccc4)C(C)=C1C3(C)C)[C@]1(OC(C)=O)CO[C@@H]1C[C@@H]2O [paclitaxel, reference compound] | 8.79 ± 0.96 µM | 12 ± 0.56 µM | – | – | – |
